Data taken from patent EP3088389A1, “4-EPI-ISOFAGOMINE DERIVATIVES” (Dorphan S.A., priority 2015, dated 2016).

Tests used:
[1] = test system: mutated beta-galactosidase; assay: Increase of mutated beta-galactosidase activity in fibroblasts of GM1-gangliosidosis patients (Example 6); format: cell-based, human; conditions: 4 days
Protocol: GM02439 and GM05335 fibroblasts (Coriell Institute) were cultured for 4 days in the presence or the absence of 2 µM of (2R,3R,4S,5R)-3-hydroxymethyl-2-pentylpiperidine-4,5-diol. Cells were lysed in 100 mM sodium citrate, pH 4.8, supplemented with 1% Triton X-100 and protease inhibitors. B eta-galactosidase and beta-hexosaminidase activities were then determined in the cell lysates using fluorescence and colorimetric assays, respectively. Results presented are means of 4 values obtained from independent cultures. […] Hatched and empty bars: beta-galactosidase and beta-hexosaminidase activities, respectively.

Beta-galactosidase [2] = target: T1, Beta-galactosidase (Homo sapiens, UniProt P16278); assay: Prevention of heat denaturation of beta-galactosidase in PBMC lysate at 48°C (Example 5); format: biochemical
T1 construct: endogenous in cells; host or cells: human peripheral blood mononuclear cells (lysate)
T1 sequence (P16278 29-677): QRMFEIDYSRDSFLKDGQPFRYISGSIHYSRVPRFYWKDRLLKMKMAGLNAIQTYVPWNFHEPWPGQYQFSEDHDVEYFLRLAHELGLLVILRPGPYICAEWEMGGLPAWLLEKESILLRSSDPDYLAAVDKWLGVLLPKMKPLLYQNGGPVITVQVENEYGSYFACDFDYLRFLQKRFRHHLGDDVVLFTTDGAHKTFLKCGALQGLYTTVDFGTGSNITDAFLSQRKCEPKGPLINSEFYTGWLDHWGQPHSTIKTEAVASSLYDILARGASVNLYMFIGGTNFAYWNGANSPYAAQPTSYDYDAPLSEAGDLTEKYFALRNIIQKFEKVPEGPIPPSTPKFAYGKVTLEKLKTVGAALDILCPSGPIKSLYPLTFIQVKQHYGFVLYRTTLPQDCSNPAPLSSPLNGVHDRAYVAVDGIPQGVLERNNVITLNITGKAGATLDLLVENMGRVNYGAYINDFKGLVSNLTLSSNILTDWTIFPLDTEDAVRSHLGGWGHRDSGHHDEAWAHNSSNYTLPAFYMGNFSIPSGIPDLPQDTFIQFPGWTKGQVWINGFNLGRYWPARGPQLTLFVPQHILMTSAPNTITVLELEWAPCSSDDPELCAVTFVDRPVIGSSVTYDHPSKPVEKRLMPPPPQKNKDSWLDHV
Source text: The capacity of a compound of protecting an enzyme from denaturation predicts to some extent its pharmacological chaperone activity, i.e. its capacity of restoring enzymatic activity in patient cells exposed to the compound. The Applicant has evaluated whether (2R,3R,4S,5R)-3-hydroxymethyl-2-pentylpiperidine-4,5-diol can prevent heat denaturation of human beta-galactosidase following a procedure described by Suzuki et al 2014.
Samples of human peripheral blood mononuclear cell lysate (2 x 10^6 cells) in phosphate buffer, pH 7.3, 0.5% Triton X-100 and protease inhibitors were incubated at 48°C for 0, 5, 10, 20, and 40 minutes in the presence of graded concentrations of (2R,3R,4S,5R)-3-hydroxymethyl-2-pentylpiperidine-4,5-diol. The samples were then diluted in citrate buffer, pH 4.3, and 0.25 mM of 4-methylumbelliferyl β-D-galactopyranoside. After an incubation of 17 hours at 37°C, the reaction was stopped by the addition of glycine 0.15 M, pH 10.2. Fluorescence was determined at 445 nm using an excitation wavelength at 365 nm. The tested concentrations of (2R,3R,4S,5R)-3-hydroxymethyl-2-pentylpiperidine-4,5-diol, are 20 µM (square), 2 µM (triangle), 0.2 µM (diamond), 0.02 µM (circle) and 0 µM (line).

Beta-glucuronidase = target: T2, Beta-glucuronidase (Homo sapiens, UniProt P08236); assay: Glycosidase specificity panel (Example 4); format: biochemical
T2 sequence (P08236 23-651): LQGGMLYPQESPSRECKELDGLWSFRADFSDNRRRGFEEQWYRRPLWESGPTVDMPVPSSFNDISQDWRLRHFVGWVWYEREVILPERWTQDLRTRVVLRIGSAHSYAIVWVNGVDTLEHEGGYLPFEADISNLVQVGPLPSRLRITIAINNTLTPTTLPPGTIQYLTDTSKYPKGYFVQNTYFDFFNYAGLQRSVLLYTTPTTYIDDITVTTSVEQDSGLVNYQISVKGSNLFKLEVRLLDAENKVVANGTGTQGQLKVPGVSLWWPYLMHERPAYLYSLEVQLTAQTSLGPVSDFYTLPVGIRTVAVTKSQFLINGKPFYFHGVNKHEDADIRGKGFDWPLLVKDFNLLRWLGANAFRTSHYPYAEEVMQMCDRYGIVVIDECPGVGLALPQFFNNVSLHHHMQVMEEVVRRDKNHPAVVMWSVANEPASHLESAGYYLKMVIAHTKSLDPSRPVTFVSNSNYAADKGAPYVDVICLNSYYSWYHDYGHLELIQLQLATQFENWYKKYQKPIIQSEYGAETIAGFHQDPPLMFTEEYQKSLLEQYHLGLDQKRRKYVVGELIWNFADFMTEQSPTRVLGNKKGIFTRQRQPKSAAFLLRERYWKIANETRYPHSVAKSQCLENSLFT
Source text: (§1) IC50 values indicated in table 1 are the concentrations of (2R,3R,4S,5R)-3-hydroxymethyl-2-pentylpiperidine-4,5-diol compound required to inhibit by half the different enzymatic activities.

Alpha-galactosidase = target: T3, Alpha-galactosidase (Homo sapiens, UniProt P06280); assay: Glycosidase specificity panel (Example 4); format: biochemical
T3 sequence (P06280 32-429): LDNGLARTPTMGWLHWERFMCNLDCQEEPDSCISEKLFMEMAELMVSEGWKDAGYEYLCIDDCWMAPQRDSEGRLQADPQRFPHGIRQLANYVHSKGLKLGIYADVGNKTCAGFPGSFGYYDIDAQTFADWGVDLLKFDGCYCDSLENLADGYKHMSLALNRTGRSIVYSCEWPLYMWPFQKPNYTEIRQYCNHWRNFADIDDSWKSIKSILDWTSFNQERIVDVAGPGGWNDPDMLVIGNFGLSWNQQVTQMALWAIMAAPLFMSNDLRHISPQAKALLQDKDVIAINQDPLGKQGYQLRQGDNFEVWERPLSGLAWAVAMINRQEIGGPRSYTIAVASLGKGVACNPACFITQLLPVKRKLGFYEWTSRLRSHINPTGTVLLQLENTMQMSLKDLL
Source text: as §1

Beta-galactosidase [3] = target: T1, Beta-galactosidase; assay: Inhibition of wild type beta-galactosidase activity in human peripheral blood mononuclear cell lysate (Example 3); format: biochemical
Protocol: (§2) Samples of human peripheral blood mononuclear cell lysate (2 x 10^6 cells per assay) were incubated with graded concentrations of compound in 25 mM sodium phosphate, pH 7.3, supplemented with 0.5% Triton X-100 and protease inhibitors, and 0.8 mM of 4-methylumbelliferyl β-D-galactopyranoside. After an incubation of 2 hours at 37°C, the enzymatic reactions were stopped by the addition of 0.15 M glycine, pH 10.2, and fluorescence was measured at 445 nm using an excitation wavelength of 365 nm.

Beta-galactosidase [4] = target: T1, Beta-galactosidase; assay: Glycosidase specificity panel, beta-galactosidase from PBMC lysate (Example 4); format: biochemical
Source text: as §1

Beta-hexosaminidase [5] = assay: Beta-hexosaminidase activity in fibroblasts of GM1-gangliosidosis patients (Example 6); format: cell-based, human; conditions: GM02439 and GM05335 fibroblasts, 2 µM, 4 days
Protocol: GM02439 and GM05335 fibroblasts (Coriell Institute) were cultured for 4 days in the presence or the absence of 2 µM of (2R,3R,4S,5R)-3-hydroxymethyl-2-pentylpiperidine-4,5-diol. Cells were lysed in 100 mM sodium citrate, pH 4.8, supplemented with 1% Triton X-100 and protease inhibitors. B eta-galactosidase and beta-hexosaminidase activities were then determined in the cell lysates using fluorescence and colorimetric assays, respectively. Results presented are means of 4 values obtained from independent cultures. Percent of deviation of each value is <30% from the mean. Hatched and empty bars: beta-galactosidase and beta-hexosaminidase activities, respectively.

Alpha-glucosidase = assay: Glycosidase specificity panel (Example 4); format: biochemical, Human
Source text: as §1

Beta-glucosidase = assay: Glycosidase specificity panel (Example 4); format: biochemical, Human
Source text: as §1

Beta-hexosaminidase [6] = assay: Glycosidase specificity panel (Example 4); format: biochemical, Human
Source text: as §1

Alpha-hexosaminidase = assay: Glycosidase specificity panel (Example 4); format: biochemical, Human
Source text: as §1

Beta-galactosidase [7] = target: T1, Beta-galactosidase; assay: Inhibition of wild type beta-galactosidase activity in human peripheral blood mononuclear cell lysate (Example 1); format: biochemical; conditions: for IC50: human PBMC lysate, pH 7.3, 2 hours at 37°C
Protocol: as §2, with “compound N-nonyl-4-epi-isofagomine or 4-epi-isofagomine” for “compound”, “50” for “25”, “1%” for “0.5%”, “nm. The stock solutions of compound were at 20 mM in DMSO.” for “nm.”
The results obtained with N-nonyl-4-epi-isofagomine (squares), 4-epi-isofagomine (triangles) and DMSO vehicle (circles) are presented on figure 1.

[8] = human PBMC lysate, pH 7.3, 2 hours at 37°C, Example 3, read-out: IC50

How did the “increase of mutated beta-galactosidase activity relative to untreated cells” value ([1]; infantile GM1-gangliosidosis cell line GM05335, 2 µM) turn out when CCCCC[C@H]1NC[C@@H](O)[C@@H](O)[C@H]1CO [(2R,3R,4S,5R)-3-Hydroxymethyl-2-pentylpiperidine-4,5-diol] was run?
The value was 19 fold.

And the “increase of mutated beta-galactosidase activity relative to untreated cells” value ([1]; juvenile GM1-gangliosidosis cell line GM02439, 2 µM)?
Its value is 6.5 fold.

What about the activity at 0.02 µM (Beta-galactosidase [2]; 0 minute) of the same molecule?
Its activity at 0.02 µM is 100%.

And the activity at 0.02 µM (Beta-galactosidase [2]; 5 minutes)?
Its activity at 0.02 µM is 70%.

And the activity at 0.02 µM (Beta-galactosidase [2]; 10 minutes)?
Its activity at 0.02 µM is 46%.

And the activity at 0.02 µM (Beta-galactosidase [2]; 20 minutes)?
The activity at 0.02 µM was 23%.

And the activity at 0.02 µM (Beta-galactosidase [2]; 40 minutes)?
Its activity at 0.02 µM is 11%.

What about the activity at 0.2 µM (Beta-galactosidase [2]; 0 minute) of the same molecule?
Its activity at 0.2 µM is 100%.

And the activity at 0.2 µM (Beta-galactosidase [2]; 5 minutes)?
The activity at 0.2 µM was 81%.

What about the activity at 0.2 µM (Beta-galactosidase [2]; 10 minutes) of the same molecule?
Its activity at 0.2 µM is 72%.

And the activity at 0.2 µM (Beta-galactosidase [2]; 20 minutes)?
The activity at 0.2 µM was 56%.

What about the activity at 0.2 µM (Beta-galactosidase [2]; 40 minutes) of the same molecule?
The activity at 0.2 µM was 33%.

And the “time to loss of 50% of the beta-galactosidase activity” value (Beta-galactosidase [2]; 2 µM)?
The value was > 40 min.

And the activity at 2 µM (Beta-galactosidase [2]; 2 µM, 0 minute)?
Its activity at 2 µM is 100%.

What about the activity at 2 µM (Beta-galactosidase [2]; 2 µM, 5 minutes) of the same molecule?
The activity at 2 µM was 82%.

And the activity at 2 µM (Beta-galactosidase [2]; 2 µM, 10 minutes)?
The activity at 2 µM was 84%.

What about the activity at 2 µM (Beta-galactosidase [2]; 2 µM, 20 minutes) of the same molecule?
The activity at 2 µM was 73%.

And the activity at 2 µM (Beta-galactosidase [2]; 2 µM, 40 minutes)?
The activity at 2 µM was 70%.

And the “time to loss of 50% of the beta-galactosidase activity” value (Beta-galactosidase [2]; 20 µM)?
Its value is > 40 min.

And the activity at 20 µM (Beta-galactosidase [2]; 20 µM, 0 minute)?
The activity at 20 µM was 100%.

What about the activity at 20 µM (Beta-galactosidase [2]; 20 µM, 5 minutes) of the same molecule?
The activity at 20 µM was 93%.

What about the activity at 20 µM (Beta-galactosidase [2]; 20 µM, 10 minutes) of the same molecule?
The activity at 20 µM was 95%.

And the activity at 20 µM (Beta-galactosidase [2]; 20 µM, 20 minutes)?
Its activity at 20 µM is 85%.

What about the activity at 20 µM (Beta-galactosidase [2]; 20 µM, 40 minutes) of the same molecule?
Its activity at 20 µM is 87%.

What about the IC50 (Beta-glucuronidase) of the same molecule?
The IC50 was > 160 µM.

And the IC50 (Alpha-galactosidase)?
The IC50 was 150 µM.

And the IC50 (Beta-galactosidase [3]; [8])?
Its IC50 is 0.01 µM.

What about the IC50 (Beta-galactosidase [4]) of the same molecule?
Its IC50 is 0.02 µM.

And the “increase of the beta-hexosaminidase activity” value (Beta-hexosaminidase [5])?
The value was “no increase”.

And the IC50 (Alpha-glucosidase)?
The IC50 was > 160 µM.

What about the IC50 (Beta-glucosidase) of the same molecule?
The IC50 was 60 µM.

And the IC50 (Beta-hexosaminidase [6])?
The IC50 was > 160 µM.

What about the IC50 (Alpha-hexosaminidase) of the same molecule?
The IC50 was > 160 µM.

What does the source list for CCCCCC1NCC(O)[C@@H](O)[C@H]1CO (stereo in doubt) [(2R,3R,4S,5S)-3-hydroxymethyl-2-pentylpiperidine-4,5-diol]?
fold less potent than (2R,3R,4S,5R) isomer (Beta-galactosidase [3]; Example 3): 150 fold; IC50 (Beta-galactosidase [3]; [8]): 1.5 µM

CCCCCCCCCN1CC(O)C(O)C(CO)C1 (stereo not drawn) [N-nonyl-4-epi-isofagomine] was tested. Which “fold less inhibitory on human beta-galactosidase than 4-epi-isofagomine” value (Beta-galactosidase [7]) did it give?
Its value is 140 fold.

And the IC50 (Beta-galactosidase [7])?
The IC50 was 10 µM.

For OC[C@H]1CNC[C@@H](O)[C@H]1O [4-epi-isofagomine], which IC50 (Beta-galactosidase [3]) is on record?
Its IC50 is 0.8 µM.

What about the IC50 (Beta-galactosidase [7]) of the same molecule?
The IC50 was 0.07 µM.
